Assay results from patent US20200094070A1, “METHOD AND APPARATUS FOR PHOTOACTIVATING NUCLEAR RECEPTORS” (THERALASE BIOTECH INC., priority 2017, published 2020).

Legend:
[1] = test system: human bladder cancer (T24) cells; experiment: LLLT combined with 14C PDT, Presto Blue cell kill, T24 cells; assay type: cell-based; details: for 14C-mediated cell kill after LLLT: T24, 200 nM 14C
Protocol: (§4) RG2 cells (15,000 cells) or human bladder cancer (T24) cells (10,000 cells) were seeded in complete DMEM in 96-well culture plates and incubated at 37° C., 5% CO2 overnight. The next day, the cells were washed once with PBS and the medium was replaced with complete DMEM without phenol red or sodium pyruvate. Cells were treated with either 660 nm, 905 nm or a combination of both wavelengths at the indicated fluence doses in J/cm^2. After 6 or 24 hours, the media was replaced with media containing the ruthenium-based PDC 14C (100 nM for RG2 cells and 200 nM for T24 cells) for 1 hour, then the PDC was washed away and the cells were treated with PDT using green laser light (wavelength: 530 nm, fluence 20 J/cm^2) using a 96-laser diode array light source (TLD3000, Theralase Inc. Toronto, ON, Canada), after which the plates were returned to the dark in the incubator overnight. Cell viability was measured by Presto Blue cell viability assay quantifying fluorescence at using a plate reader at excitation emissions of 560/600 nm. PDT-mediated cell kill was calculated by subtracting cell kill due to LLLT first and values were normalized to control cells that were kept in the dark and not treated with LLLT.
(§5) RG2 cells (7,500 cells) or human bladder cancer (T24) cells (5,000 cells) were seeded in complete DMEM in 96-well culture plates and incubated at 37° C., 5% CO2 overnight. The next day, the cells were washed once with PBS and the medium was replaced with complete DMEM without phenol red or sodium pyruvate, with or without 10 uM GCR antagonist mifepristone for an additional 24 hours. Cells were treated with either 660 nm, 905 nm or a combination of both wavelengths at the indicated energy doses in J/cm^2. After 6 or 24 hours, the media was replaced with media containing the ruthenium-based photodynamic compound 14C (100 nM for RG2 cells and 200 nM for T24 cells) for 3 hours, then the drug was washed away and the cells were treated with PDT using green laser (wavelength: 530 nm, fluence 20 J/cm^2) using a 96-laser diode array light source (TLD-3000, Theralase Inc. Toronto, ON, Canada), and the plates were returned to the dark in the incubator overnight. Cell viability was measured by Presto Blue cell viability assay quantifying fluorescence at using a plate reader at excitation emissions of 560/600 nm.

RG2 cells [2] = experiment: Stem-like characteristics of cancer cells (qPCR of stem cell genes, proliferation rate) after LLLT; assay type: cell-based, rat; details: 24 hours pre-treatment
Protocol: Cells were then treated with 905 nm at fluence doses of 5 or 20 J/cm^2. Cells were incubated for 6 hours, then the cells were washed once with PBS and harvested by TRIzol reagent for RNA extraction (Invitrogen) per the manufacturer's protocol. 2 ug of RNA were used to prepare cDNA using the high-capacity cDNA reverse transcription kit (Thermofisher) and the cDNA was diluted 1:10. 2 μl of cDNA was used per PCR reaction using the SYBR green master mix and qPCR was run on the LightCycler 480 (Roche). Gene expression was normalized to the housekeeping gene HPRT, and values were normalized to control cells that were kept in the dark and not treated with LLLT. Relative analysis of stem cell associated transcription factor genes CD133, OCT4, NANOG, SOX2 and LIN28a, or proliferation promoting genes NESTIN, MSI1, MELK and ALDH1a1. […] Phase contrast images (4×) were taken every 4 hours using the Incucyte ZOOM system to calculate percent confluency overtime. […] Proliferation rate was calculated as the inverse of T (time when cells reach confluency halfway between original seeding density (15%) and final 100% confluency). Data were normalized to the corresponding dark control group (0 J/cm^2) for each drug expressed as 1 (not shown). […]

[3] = test system: human bladder cancer (T24) cells; details: Mifepristone 10 uM, 24 hours
Protocol: (§6) RG2 cells (30,000 cells) or human bladder cancer (T24) cells (20,000 cells) are seeded in complete DMEM in 96-well Seahorse culture plates (Agilent technologies) and incubated at 37° C., 5% CO2. The cells are treated for 24 hours with the GCR agonist, dexamethasone, or the GCR antagonist, Mifepristone (10 uM). The cells are then washed once with PBS and the medium replaced with complete DMEM without phenol red or sodium pyruvate. Cells are treated with either 660 nm, 905 nm or a combination of both wavelengths at energy doses from 0.5 to 10 J/cm^2. Cells are incubated for 24 hours. The media is then replaced with XF media without sodium bicarbonate and the plate placed at 37° C. in XF prep station (0% CO2) for 1 hour. Basal ECAR and OCR levels are measured using XFe96 analyzer (Agilent technologies) per the manufacturer's protocol.

[4] = test system: human bladder cancer (T24) cells; experiment: LLLT combined with Cisplatin, Presto Blue cell kill, T24 cells; assay type: cell-based; details: for Cisplatin-mediated cell kill after LLLT: T24, 1.5 ug/ml
Protocol: (§1) After 6 or 24 hours, the cells were treated with Cisplatin (1 ug/ml for RG2 cells or 1.5 ug/ml for T24 cells), and the plates were returned to the incubator overnight. Cell viability was measured by Presto Blue cell viability assay quantifying fluorescence at using a plate reader at excitation emissions of 560/600 nm. Values were normalized to control cells that were kept in the dark and not treated with LLLT.
(§2) After 6 or 24 hours, the cells were treated with Cisplatin (1 ug/ml for RG2 cells or 1.5 ug/ml for T24 cells), and the plates were returned to the incubator overnight. Cell viability was measured by Presto Blue cell viability assay quantifying fluorescence at using a plate reader at excitation emissions of 560/600 nm. Values will be normalized to control cells that are kept in the dark and not treated with LLLT.
(§3) Cells were then treated with either: 1) the ruthenium-based PDC 14C followed by PDT using a green laser light source (FIGS. 24A-24D); 2) the antineoplastic drug Cisplatin (FIGS. 25A-25D). The plates were then returned to the incubator overnight. Cell viability was measured by Presto Blue cell viability assay quantifying fluorescence at using a plate reader at excitation emissions of 560/600 nm. Values were normalized to control cells that were […].

Rat glioma (RG2) cells [5] = experiment: LLLT combined with Cisplatin, Presto Blue cell kill, RG2 cells; assay type: cell-based; details: for Cisplatin-mediated cell kill after LLLT: RG2, 1 ug/ml
Protocol: as §1, §2, §3

Rat glioma (RG2) cells [6] = experiment: LLLT combined with 14C PDT, Presto Blue cell kill, RG2 cells; assay type: cell-based; details: for 14C-mediated cell kill after LLLT: RG2, 100 nM 14C
Protocol: as §4, §5

RG2 cells [7] = details: Mifepristone 10 uM, 24 hours
Protocol: as §6

CT26WT tumor cells = experiment: LLLT and PDT in vivo hind leg tumor model; parameters: species or system Balb/c mice; details: LLLT 2.5-20 J/cm^2 daily for 5 days; injection on day 5; suboptimal red light PDT 90 J/cm^2 4 hours after injection
Protocol: CT26WT tumor cells were implanted in the hind leg of Balb/c mice to develop a hind leg tumor model. […] TLD-1433 (14C) was injected on day 5 of LLLT treatment and suboptimal red light PDT (90 J/cm^2) was performed 4 hours after injection. Tumor size and survival were determined to examine the effect of LLLT on potentiating the effect of 14C-mediated PDT and improving the survival curve.

[8] = T24, 10 uM pre-treatment, no LLLT
[9] = T24, 10 uM, LLLT 905 nm 5 J/cm^2, 660 nm 2.5 J/cm^2 or combination 5 J/cm^2
[10] = RG2, 10 uM pre-treatment, no LLLT
[11] = RG2, 10 uM, LLLT 905 nm 5 J/cm^2, 660 nm 2.5 J/cm^2 or combination 5 J/cm^2
[12] = LLLT 905 nm PW 5 J/cm^2 or 660 nm CW 2.5 J/cm^2 before PDT 530 nm 20 J/cm^2
[13] = LLLT higher fluence values of 20 and 10 J/cm^2
[14] = 5 J/cm^2 for 905 nm PW and most conditions with 660 nm CW alone (Example 9A)
[15] = 905 nm PW or combined 905 nm PW and 660 nm CW at 20 J/cm^2 (Example 9A)

Compound: CC#C[C@]1(O)CC[C@H]2[C@@H]3CCC4=CC(=O)CCC4=C3[C@@H](c3ccc(N(C)C)cc3)C[C@@]21C [Mifepristone]
- effect of Mifepristone treatment on PDT cell kill [1, 8]: did not have any significant effects
- cell kill by Mifepristone treatment alone ([1]; T24, 10 uM, 24 hours): did not induce cell kill
- effect of Mifepristone pre-treatment on the synergistic effect of LLLT on 14C PDT [1, 9]: significantly inhibited
- effect of Mifepristone pre-treatment on positive effects of LLLT on stem-like characteristics (RG2 cells [2]): blocked
- effect on Warburg effect (glycolysis, mitochondrial respiration) [3]: potentiates the Warburg effect
- effect on LLLT inhibition of the Warburg effect ([3]; then LLLT 0.5 to 10 J/cm^2): reverses the positive effect
- effect of Mifepristone treatment on Cisplatin cell kill [4, 8]: did not have any significant effects
- cell kill by Mifepristone treatment alone ([4]; T24, 10 uM, 24 hours (Example 19)): did not induce cell kill
- effect of Mifepristone pre-treatment on the synergistic effect of LLLT on Cisplatin [4, 9]: significantly inhibited
- effect of Mifepristone treatment on Cisplatin cell kill (Rat glioma (RG2) cells [5]; [10]): did not have any significant effects
- cell kill by Mifepristone treatment alone (Rat glioma (RG2) cells [5]; RG2, 10 uM, 24 hours (Example 19)): did not induce cell kill
- effect of Mifepristone pre-treatment on the synergistic effect of LLLT on Cisplatin (Rat glioma (RG2) cells [5]; [11]): significantly inhibited
- effect of Mifepristone treatment on PDT cell kill (Rat glioma (RG2) cells [6]; [10]): did not have any significant effects
- cell kill by Mifepristone treatment alone (Rat glioma (RG2) cells [6]; RG2, 10 uM, 24 hours): did not induce cell kill
- effect of Mifepristone pre-treatment on the synergistic effect of LLLT on 14C PDT (Rat glioma (RG2) cells [6]; [11]): significantly inhibited
- effect on Warburg effect (glycolysis, mitochondrial respiration) (RG2 cells [7]): potentiates the Warburg effect
- effect on LLLT inhibition of the Warburg effect (RG2 cells [7]; then LLLT 0.5 to 10 J/cm^2): reverses the positive effect

Compound: Cc1ccnc(-c2cc(C)ccn2)c1.Cc1ccnc(-c2cc(C)ccn2)c1.[Cl-].[Cl-].[Ru+2].c1csc(-c2ccc(-c3ccc(-c4nc5c6cccnc6c6ncccc6c5[nH]4)s3)s2)c1 [14C]
- 14C-mediated cell kill after LLLT [1, 12]: increased
- 14C-mediated cell kill after LLLT [1, 13]: promoted cell survival
- 14C-mediated cell kill after LLLT (Rat glioma (RG2) cells [6]; [12]): increased
- 14C-mediated cell kill after LLLT (Rat glioma (RG2) cells [6]; [13]): promoted cell survival
- survival of mice, LLLT plus PDT compared to PDT only (CT26WT tumor cells): synergistically increased the survival

Compound: N.N.[Cl][Pt][Cl] [Cisplatin]
- Cisplatin-mediated cell kill after LLLT [4, 14]: promoted cell survival
- Cisplatin-mediated cell kill after LLLT [4, 15]: increased
- Cisplatin effect after LLLT (without Mifepristone) ([4]; T24, 905 nm 5 J/cm^2, 660 nm 2.5 J/cm^2 or combination 5 J/cm^2 (Example 19)): increased
- Cisplatin effective cell kill after LLLT (without Mifepristone) ([4]; T24, higher doses 10-20 J/cm^2 (Example 19)): decreased
- Cisplatin-mediated cell kill after LLLT (Rat glioma (RG2) cells [5]; [14]): promoted cell survival
- Cisplatin-mediated cell kill after LLLT (Rat glioma (RG2) cells [5]; [15]): increased
- Cisplatin effect after LLLT (without Mifepristone) (Rat glioma (RG2) cells [5]; RG2, 905 nm 5 J/cm^2, 660 nm 2.5 J/cm^2 or combination 5 J/cm^2 (Example 19)): increased
- Cisplatin effective cell kill after LLLT (without Mifepristone) (Rat glioma (RG2) cells [5]; RG2, higher doses 10-20 J/cm^2 (Example 19)): decreased
